Measurements taken from patent US20140179681A1, “METHODS AND COMPOSITIONS OF TARGETED DRUG DEVELOPMENT” (priority 2010, published 2014).
Values joined by “and” are separate entries in the source; they are usually repeats but may differ in a detail not shown here. Equal entries are not always repeated. Structures can show the parent of a compound that is named as a salt. Where two headings read alike, the source gives them in different places.

Assays:
[1] = target: T1, EGFR (Homo sapiens, UniProt P00533); experiment: EGFR in-cell Western (ICW) screening protocol (EGFR inhibition assay); assay type: cell-based; design: ICW 1 / ICW 2 / ICW Avg: unit not given here; details: for ICW Avg / ICW 1 / ICW 2: ICW assay; for ICW Avg: average of runs 1 and 2; for ICW 1: run 1; for ICW 2: run 2; for ICW assay: Table 10; for ICW assay / ICW Screen: % Inhibition of EGF dependent EGFR phosphorylation in A431 cells, compound 125 μM in assay; for ICW Screen: Table 11
T1 construct: host or cells: A431
T1 sequence (P00533 25-1210): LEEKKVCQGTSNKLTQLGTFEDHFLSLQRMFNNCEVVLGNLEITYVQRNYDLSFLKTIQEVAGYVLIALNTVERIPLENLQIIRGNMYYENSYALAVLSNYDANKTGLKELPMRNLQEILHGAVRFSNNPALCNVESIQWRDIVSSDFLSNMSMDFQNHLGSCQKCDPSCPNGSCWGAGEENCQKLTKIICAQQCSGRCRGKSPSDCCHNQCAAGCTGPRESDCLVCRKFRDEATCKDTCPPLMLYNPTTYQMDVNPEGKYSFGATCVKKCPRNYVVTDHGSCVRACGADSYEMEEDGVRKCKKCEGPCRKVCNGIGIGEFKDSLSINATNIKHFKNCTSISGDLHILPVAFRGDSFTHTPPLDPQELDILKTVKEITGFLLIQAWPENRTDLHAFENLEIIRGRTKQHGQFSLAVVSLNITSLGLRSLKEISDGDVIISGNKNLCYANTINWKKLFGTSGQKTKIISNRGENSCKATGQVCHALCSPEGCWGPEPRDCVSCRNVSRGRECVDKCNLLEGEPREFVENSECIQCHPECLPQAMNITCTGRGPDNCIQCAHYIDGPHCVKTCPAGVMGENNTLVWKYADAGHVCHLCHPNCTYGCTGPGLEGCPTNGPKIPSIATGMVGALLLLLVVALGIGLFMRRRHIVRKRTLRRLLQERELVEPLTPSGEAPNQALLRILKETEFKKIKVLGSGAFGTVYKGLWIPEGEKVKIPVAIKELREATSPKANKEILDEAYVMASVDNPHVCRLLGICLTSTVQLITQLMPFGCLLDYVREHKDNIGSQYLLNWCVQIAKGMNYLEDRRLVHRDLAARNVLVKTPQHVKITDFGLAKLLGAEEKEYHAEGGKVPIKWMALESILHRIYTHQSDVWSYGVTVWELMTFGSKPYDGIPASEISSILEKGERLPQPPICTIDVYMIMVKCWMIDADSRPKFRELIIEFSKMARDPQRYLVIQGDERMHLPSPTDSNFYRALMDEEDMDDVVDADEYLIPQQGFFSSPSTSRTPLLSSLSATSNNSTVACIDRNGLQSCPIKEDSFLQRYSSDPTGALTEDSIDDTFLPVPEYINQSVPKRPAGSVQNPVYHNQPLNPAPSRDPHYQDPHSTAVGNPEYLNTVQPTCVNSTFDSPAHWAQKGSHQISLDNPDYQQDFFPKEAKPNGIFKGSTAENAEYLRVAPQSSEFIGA
How it was run: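 In-cell Western read-out: fixed A431 cells were co-stained for total EGFR and phospho-EGFR (Tyr1173; some runs Tyr1045). Before fixation, cells were serum-starved for 2 h, exposed to compound for 4 h, then given EGF for 10 min, usually at 10 ng/ml final (6.6 or 12.5 ng/ml in some runs).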

[2] = test system: MDBK line; experiment: MTT Cell Proliferation Assay, MDBK cells; assay type: cell-based, bovine
How it was run: (§1)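 Each concentration ran in quadruplicate across duplicate plates, with compounds serially diluted in DMSO and delivered at 0.5% DMSO in 0.5% FBS medium for 3 days.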

[3] = test system: epithelial carcinoma A431 cell line; experiment: MTT Cell Proliferation Assay, A431 cells; assay type: cell-based; details: for MTT Assay IC50(A431/MDBK): ratio in parentheses: ratio MDBK IC50 / A431 IC50 (selectivity)
How it was run: as §1

[4] = Bos taurus, MDBK, MDBK cells, second value of cell, read-out: MTT Assay IC50(A431/MDBK): MDBK
[5] = Homo sapiens, A-431, A431 cells, first value of cell, read-out: MTT Assay IC50(A431/MDBK): A431
[6] = Bos taurus, MDBK, second value of 'a/b (c)', taken as MDBK cells, read-out: MTT Screen, second value of cell
[7] = Homo sapiens, A-431, first value of 'a/b (c)', taken as A431 cells, read-out: MTT Screen, first value of cell
[8] = Bos taurus, MDBK, 72 h, Table 10, second of x/y(ratio): MDBK, three day treatment, unit not printed (doses in μM), read-out: MTT assay (second value)
[9] = Homo sapiens, A-431, 72 h, Table 10, first of x/y(ratio): A431, three day treatment, unit not printed (doses in μM), read-out: MTT assay (first value)
[10] = Bos taurus, MDBK, Table 11, second of x/y(ratio): MDBK, unit not printed (doses in μM), read-out: MTT Screen (second value)
[11] = Homo sapiens, A-431, 72 h, Table 11, first of x/y(ratio): A431, unit not printed (doses in μM), read-out: MTT Screen (first value)
[12] = second value of 'a/b (c)', taken as MDBK cells, read-out: MTT Screen, second value of cell
[13] = first value of 'a/b (c)', taken as A431 cells, read-out: MTT Screen, first value of cell

Row | Compound | ICW Avg [1] | ICW 1 [1] | ICW 2 [1] | IC50 [2, 4] | IC50 [3, 5] | MTT Assay IC50(A431/MDBK): ratio in parentheses [3] | also measured
1 | COc1cccc2c(C)nc(Nc3nc(C)c(C)c(=O)[nH]3)nc12 [compound 12615] | 29.24 | 31.59 | 26.88 | 5.93 µM | 5.12 µM | 1.16 | 
2 | CCOc1ccc(NS(=O)(=O)c2ccc(NC(=S)NC(=O)CC)cc2)cc1 [AD4-11409] |  |  |  |  |  |  | ICW Screen (ICW Inhibition) [1]: 74.94; IC50 [2, 6]: 11.7 µM; IC50 [3, 7]: 17.2 µM
3 | Cc1cc(C)nc(NS(=O)(=O)c2ccc(NC(=S)NC(=O)/C=C/c3ccc(Cl)cc3)cc2)n1 [AD4-11648] |  |  |  |  |  |  | ICW Screen (ICW Inhibition) [1]: 38.362; IC50 [2, 6]: 45.1 µM; IC50 [3, 7]: 46.7 µM
4 | CCCc1c(C)[nH]c(Nc2nc(C)c3cc(C)ccc3n2)nc1=O [compound 12661] | 35.24 | 29.34 | 41.14 | 38.2 µM | 43.1 µM | 0.89 | 
5 | Cc1ccnc(Nc2nc(-c3ccccc3)c3cc(Cl)ccc3n2)n1 [compound 11455] | 37.35 | 48.80 | 25.90 | 23.4 µM | 10.8 µM | 2.16 | 
6 | COc1ccc(-c2cc(=O)[nH]c(Nc3nc(C)c4ccccc4n3)n2)cc1OC [11471 + TFA] | 39.92 | 37.43 | 42.40 | 44.1 µM | 36.9 µM | 1.20 | 
7 | C=CCN(CC=C)S(=O)(=O)c1ccc(NC(=S)NC(=O)/C=C/c2cccs2)cc1 [AD4-11979] |  |  |  |  |  |  | ICW Screen (ICW Inhibition) [1]: 39.775; IC50 [2, 6]: 16.2 µM; IC50 [3, 7]: 9.31 µM
8 | Cc1cc(C)c(NS(=O)(=O)c2ccc(NC(=S)Nc3ccc(S(N)(=O)=O)cc3)cc2)c(C)c1 [AD4-12250] |  |  |  |  |  |  | ICW assay [1]: 29.3683; IC50 [2, 8]: 11.6 µM; IC50 [3, 9]: 12.7 µM
9 | O=c1cc(CN2CCN(Cc3ccccc3)CC2)c2cc(Cl)c(O)cc2o1 [AD4-10180] |  |  |  |  |  |  | ICW Screen [1]: 32.1; IC50 [2, 10]: 36.3 µM; IC50 [3, 11]: 16.7 µM
10 | Cc1ccc2c(C)nc(Nc3nc(-c4ccccc4C)cc(=O)[nH]3)nc2c1 [compound 11511] | 82.50 | 77.05 | 87.95 |  |  |  | IC50 ([2]; Bos taurus, MDBK, follow-up MTT, MDBK cells, second value, read-out: MTT Follow-up: MDBK): 0.57 µM; IC50 ([3]; Homo sapiens, A-431, follow-up MTT, A431 cells, first value, read-out: MTT Follow-up: A431): 1.26 µM; MTT Follow-up: ratio in parentheses ([3]; follow-up MTT, ratio MDBK/A431): 0.45
11 | Cc1ccc(NS(=O)(=O)c2ccc(NC(=S)NC(=O)C(C)C)cc2)c(C)c1 [AD4-12062] |  |  |  |  |  |  | ICW Screen (ICW Inhibition) [1]: 34.268; IC50 [2, 6]: 18.8 µM; IC50 [3, 7]: 64.5 µM
12 | Cc1cc(C)c2c(CN3CCN(Cc4ccc5c(c4)OCO5)CC3)cc(=O)oc2c1 [AD4-10182] |  |  |  |  |  |  | ICW Screen [1]: 39.51; IC50 [2, 10]: 43.3 µM; MTT Follow-up (second value) ([2]; Table 11, second of x/y(ratio): MDBK, unit not given): non- convergent; IC50 [3, 11]: 6.78 µM; IC50 ([3]; Homo sapiens, A-431, Table 11, first of x/y(ratio): A431, unit inferred, read-out: MTT Follow-up (first value)): 3.75 µM
13 | CCc1ccc2nc(Nc3nc(C)c(CCC(C)C)c(=O)[nH]3)nc(C)c2c1 [compound 11462] | 77.32 | 77.14 | 77.49 | 46.6 µM | 14.6 µM | 3.19 | 
14 | COCc1cc(=O)nc(Nc2nc(C)c3cc(C)cc(C)c3n2)[nH]1 [11625 + TFA] | 25.22 | 31.51 | 18.94 | 34.7 µM | 49 µM | 0.71 | 
15 | CCc1ccc(NC(=S)Nc2ccc(S(=O)(=O)Nc3cc(Cl)cc(Cl)c3)cc2)cc1 [AD4-12436] |  |  |  |  |  |  | ICW assay [1]: 108.826; IC50 [2, 8]: 5.53 µM; IC50 [3, 9]: 5.47 µM
16 | CC1CCc2cc(F)ccc2N1S(=O)(=O)c1ccc(NC(=S)Nc2ccc(Cl)c(Cl)c2)cc1 (centres unmarked) [AD4-12827] |  |  |  |  |  |  | ICW assay [1]: 45.9206; IC50 [2, 8]: 6.4 µM; IC50 [3, 9]: 6.49 µM
17 | C=CCc1c(C)nc(Nc2nc(C)c3cc(CC)ccc3n2)[nH]c1=O [compound 12739] | 34.03 | 28.51 | 39.54 | 9.17 µM | 15.9 µM | 0.58 | 
18 | COc1ccc2nc(Nc3nc(C)c(CCC(C)C)c(=O)[nH]3)nc(C)c2c1 [compound 11456] | 35.54 | 33.74 | 37.33 | 5.48 µM | 5.84 µM | 0.94 | 

Row | Compound | ICW Avg [1] | ICW 1 [1] | ICW 2 [1] | IC50 [2, 4] | IC50 [3, 5] | MTT Assay IC50(A431/MDBK): ratio in parentheses [3] | also measured
19 | CC(=O)NC(=S)Nc1ccc(S(=O)(=O)N2CCc3ccccc32)cc1 [AD4-10623] |  |  |  |  |  |  | ICW Screen (ICW Inhibition) [1]: 46.185; IC50 [2, 6]: 38.3 µM; IC50 [3, 7]: 25.8 µM
20 | Cc1ccc(NC(=S)Nc2ccc(S(=O)(=O)Nc3ccccc3)cc2)cc1Cl [AD4-12844] |  |  |  |  |  |  | ICW assay [1]: 112.768; IC50 [2, 8]: 6.13 µM; IC50 [3, 9]: 6.8 µM
21 | Cc1ccc(NS(=O)(=O)c2ccc(NC(=S)NC(=O)C3CCCCC3)cc2)cc1C [AD4-11417] |  |  |  |  |  |  | ICW Screen (ICW Inhibition) [1]: 40.711; IC50 [2, 12]: 49.3 µM; IC50 [3, 13]: 25.5 µM
22 | O=S(=O)(Nc1ccccc1)c1ccc(NC(=S)Nc2ccc(Cl)cc2)cc1 [AD4-12783] |  |  |  |  |  |  | ICW assay [1]: 57.4272; IC50 [2, 8]: 7.62 µM; IC50 [3, 9]: 7 µM
23 | O=C(NC(=S)Nc1ccc(S(=O)(=O)Nc2ccccc2)cc1)c1ccco1 [AD4-10705] |  |  |  |  |  |  | ICW Screen (ICW Inhibition) [1]: 47.764; IC50 [2, 6]: 25.2 µM; IC50 [3, 7]: 23.1 µM
24 | COc1ccccc1NC(=S)Nc1ccc(S(=O)(=O)Nc2ccc(Cl)cc2)cc1 [AD4-12502] |  |  |  |  |  |  | ICW assay [1]: 25.1182; IC50 [2, 8]: 5.46 µM; IC50 [3, 9]: 6.97 µM
25 | COc1ccc(/C=C/C(=O)NC(=S)Nc2ccc(S(=O)(=O)Nc3nc(C)cc(C)n3)cc2)cc1 [AD4-11646] |  |  |  |  |  |  | ICW Screen (ICW Inhibition) [1]: 37.949; IC50 [2, 6]: 21.1 µM; IC50 [3, 7]: 19.4 µM
26 | Cc1cc(NS(=O)(=O)c2ccc(NC(=S)NC(=O)/C=C/c3ccccc3)cc2)no1 [AD4-12173] |  |  |  |  |  |  | ICW Screen (ICW Inhibition) [1]: 35.393; IC50 [2, 12]: 106 µM and 54 µM; IC50 [3, 7]: 37.3 µM; IC50 [3, 13]: 55.8 µM
27 | CCc1ccc2nc(Nc3nc(=O)cc(CSc4nc5ccccc5s4)[nH]3)nc(C)c2c1 [11300 + TFA] | 25.61 | 25.11 | 26.12 | 7.95 µM | 26.3 µM | 0.30 | 
28 | CC(C)c1ccc2oc(=O)cc(CN3CCN(Cc4ccc5c(c4)OCO5)CC3)c2c1 [AD4-10192] |  |  |  |  |  |  | ICW Screen [1]: 16.772; IC50 [2, 10]: 43.3 µM; IC50 [3, 11]: 16.5 µM
29 | COc1ccc2nc(Nc3nc(CSc4ccc(C)cc4)cc(=O)[nH]3)nc(C)c2c1 [compound 11617] | 29.18 | 27.71 | 30.66 | 19.7 µM | 6.01 µM | 3.28 | 
30 | CCOc1ccc2nc(Nc3nc(=O)c(Cc4ccc(C)cc4)c(C)[nH]3)nc(C)c2c1 [compound 11442] | 37.95 | 50.14 | 25.76 | 118 µM | 15.6 µM |  | 
31 | COc1ccc(/C=C/C(=O)NC(=S)Nc2ccc(S(=O)(=O)Nc3cc(C)on3)cc2)cc1 [AD4-11867] |  |  |  |  |  |  | ICW Screen (ICW Inhibition) [1]: 32.432; IC50 [2, 6]: 48.1 µM; IC50 [3, 7]: 51 µM
32 | Cc1nc(Nc2nc(C)c3cccc(C)c3n2)[nH]c(=O)c1Cc1ccccc1 [12611 + TFA] | 45.72 | 52.69 | 38.76 | 5.31 µM | 5.32 µM | 1.00 | 
33 | Cc1ccc(Cl)cc1NC(=S)Nc1ccc(S(=O)(=O)N2c3ccc(F)cc3CCC2C)cc1 (centres unmarked) [AD4-12829] |  |  |  |  |  |  | ICW assay [1]: 46.4407; IC50 [2, 8]: 37.3 µM; IC50 [3, 9]: 37 µM
34 | CCc1ccc2c(C)nc(Nc3nc(C)c(CCC(C)C)c(=O)[nH]3)nc2c1 [11771 + TFA] | 46.95 | 51.58 | 42.32 | 42.1 µM | 18.2 µM | 2.32 | 
35 | CCc1ccc(NC(=S)Nc2ccc(S(=O)(=O)Nc3ccccc3)cc2)cc1 [AD4-12854] |  |  |  |  |  |  | ICW assay [1]: 38.7055; IC50 [2, 8]: 8.19 µM; IC50 [3, 9]: 6.64 µM
36 | Cc1nc(Nc2nc(=O)c3c([nH]2)CCCC3)nc2c(C)cccc12 [11436 + TFA] | 59.65 | 59.16 | 60.14 | 2.8 µM | 5.86 µM | 0.48 | 
